Reference: PubChem BioAssay (NCI)
Values joined by “and” are separate entries in the source; they are usually repeats but may differ in a detail not shown here. Equal values may be shown once.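 Following 48 hours of exposure in 96-well plates, responses at five concentrations were used to interpolate endpoints linearly. GI50 marks 50% less growth. TGI denotes the concentration required for complete inhibition of growth.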 Where a SMILES comes first, the peptide text is derived from it. [ ]: non-standard residue; d: D form. Aoe = N[C@@H](CCCCCC(=O)[C@@H]1CO1)C(=O)O

Assays:
Experiment in all cases: NCI-60 cell line screen, 48 h
[1] = tested on: HS 578T breast
[2] = tested on: SK-MEL-28 melanoma
[3] = tested on: T-47D breast
[4] = tested on: HOP-92 NSCLC
[5] = tested on: HCT-116 colon
[6] = tested on: DU-145 prostate
[7] = tested on: OVCAR-5 ovarian
[8] = tested on: MDA-MB-435
[9] = tested on: K-562 leukemia
[10] = tested on: SNB-19 CNS
[11] = tested on: CAKI-1 renal
[12] = tested on: MOLT-4 leukemia
[13] = tested on: HCT-15 colon
[14] = tested on: MDA-MB-231 breast
[15] = tested on: COLO 205 colon
[16] = tested on: SK-OV-3 ovarian
[17] = tested on: MCF7 breast
[18] = tested on: M14 melanoma
[19] = tested on: OVCAR-8 ovarian
[20] = tested on: NCI/ADR-RES ovarian
[21] = tested on: UACC-257 melanoma
[22] = tested on: SF-539 CNS
[23] = tested on: 786-0 renal
[24] = tested on: SF-295 CNS
[25] = tested on: NCI-H23 lung
[26] = tested on: SF-268 CNS
[27] = tested on: RPMI-8226 leukemia
[28] = tested on: SW-620 colon
[29] = tested on: IGROV1 ovarian
[30] = tested on: HOP-62 NSCLC
[31] = tested on: SNB-75 CNS
[32] = tested on: TK-10 renal
[33] = tested on: KM12 colon
[34] = tested on: ACHN renal
[35] = tested on: CCRF-CEM leukemia
[36] = tested on: SN12C renal
[37] = tested on: HCC-2998 colon
[38] = tested on: SR leukemia
[39] = tested on: OVCAR-4 ovarian
[40] = tested on: LOX IMVI melanoma
[41] = tested on: PC-3 prostate
[42] = tested on: RXF 393 renal
[43] = tested on: NCI-H460 lung
[44] = tested on: NCI-H226 lung

COc1ccc(C(=O)c2cc(OC)c(OC)c(OC)c2)cc1/C=C/C(=O)c1ccc(OC)c(OC)c1
GI50 [1]: 11.1 µM | TGI [1]: > 100 µM | GI50 [2]: 4.59 µM | TGI [2]: > 100 µM | GI50 [3]: 2.76 µM | TGI [3]: > 100 µM | GI50 [4]: 1.69 µM | TGI [4]: 58 µM | GI50 [5]: 0.416 µM | TGI [5]: > 100 µM | GI50 [6]: 2.21 µM | TGI [6]: > 100 µM | GI50 [7]: 3.67 µM | TGI [7]: > 100 µM | GI50 [8]: 2.29 µM | TGI [8]: > 100 µM | GI50 [9]: 0.4 µM | TGI [9]: > 100 µM | GI50 [10]: 2.7 µM | TGI [10]: > 100 µM | GI50 [11]: 0.829 µM | TGI [11]: > 100 µM | GI50 [12]: 0.669 µM | TGI [12]: 17.4 µM | GI50 [13]: 0.428 µM | TGI [13]: > 100 µM | GI50 [14]: 0.659 µM | TGI [14]: > 100 µM | GI50 [15]: 3.07 µM | TGI [15]: > 100 µM | GI50 [16]: 5.76 µM | TGI [16]: > 100 µM | GI50 [17]: 0.418 µM | TGI [17]: > 100 µM | GI50 [18]: 2.79 µM | TGI [18]: > 100 µM | GI50 [19]: 1.85 µM | TGI [19]: > 100 µM | GI50 [20]: 0.466 µM | TGI [20]: > 100 µM | GI50 [21]: 3.19 µM | TGI [21]: > 100 µM | GI50 [22]: 3.08 µM | TGI [22]: > 100 µM | GI50 [23]: 4.71 µM | TGI [23]: > 100 µM | GI50 [24]: 5.26 µM | TGI [24]: > 100 µM | GI50 [25]: 4.13 µM | TGI [25]: > 100 µM | GI50 [26]: 3 µM | TGI [26]: > 100 µM | GI50 [27]: 0.587 µM | TGI [27]: 11.8 µM | GI50 [28]: 0.321 µM | TGI [28]: > 100 µM | GI50 [29]: 3.08 µM | TGI [29]: > 100 µM | GI50 [30]: 34.1 µM | TGI [30]: > 100 µM | GI50 [31]: 3.86 µM | TGI [31]: > 100 µM | GI50 [32]: 4.16 µM | TGI [32]: > 100 µM | GI50 [33]: 1.42 µM | TGI [33]: > 100 µM | GI50 [34]: 1.32 µM | TGI [34]: > 100 µM | GI50 [35]: 0.465 µM | TGI [35]: 13.3 µM | GI50 [36]: 1.65 µM | TGI [36]: > 100 µM | GI50 [37]: 4.14 µM | TGI [37]: > 100 µM | GI50 [38]: 0.29 µM | TGI [38]: 10.2 µM | GI50 [39]: 1.95 µM | TGI [39]: > 100 µM | GI50 [40]: 0.559 µM | TGI [40]: 4.75 µM | GI50 [41]: 5.9 µM | TGI [41]: > 100 µM | GI50 [42]: > 100 µM | TGI [42]: > 100 µM | GI50 [43]: 2.43 µM | TGI [43]: > 100 µM

O=C1N[C@@H](Cc2ccccc2)C(=O)N2CCC[C@@H]2C(=O)N[C@@H](CCCCCC(=O)[C@@H]2CO2)C(=O)N[C@H]1Cc1ccccc1 (cyclo(FF[dP][Aoe]))
TGI [4]: 1.6 µM | TGI [44]: > 2.13 µM | GI50 [21]: 0.000732 µM and 0.00214 µM | GI50 [25]: 0.00426 µM and 0.00689 µM | TGI [25]: 2.12 µM and 0.458 µM
